From patent US8536196B2, “Substituted 1,3-dioxanes useful as PPAR modulators” (Evolva SA, priority 2007, dated 2013)

Legend:
mPPARalphaLBD = target: T1, mPPARalphaLBD (Mus musculus, UniProt P23204); experiment: PPARalpha transactivation assay; type: cell-based
T1 construct: expressed in transfected cells
T1 sequence (P23204 239-466 limits assumed): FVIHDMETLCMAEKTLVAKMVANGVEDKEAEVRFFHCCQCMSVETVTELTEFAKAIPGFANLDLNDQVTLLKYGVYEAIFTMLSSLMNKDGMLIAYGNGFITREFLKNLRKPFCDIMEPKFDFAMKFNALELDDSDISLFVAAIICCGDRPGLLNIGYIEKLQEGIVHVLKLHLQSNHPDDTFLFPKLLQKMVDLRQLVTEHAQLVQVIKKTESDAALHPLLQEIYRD
Procedure: This example describes a transactivation assay for determining PPARalpha modulating activity.
DPD and other ligands are tested for their ability to transactivate PPARalpha essentially as described in Example 22.

[1] = target: T2, full length human PPARgamma (hPPARg2) (Homo sapiens, UniProt P37231); experiment: Transactivation assay with full length human PPARgamma; type: cell-based
T2 construct: expressed in transfected cells
T2 sequence (P37231 1-505): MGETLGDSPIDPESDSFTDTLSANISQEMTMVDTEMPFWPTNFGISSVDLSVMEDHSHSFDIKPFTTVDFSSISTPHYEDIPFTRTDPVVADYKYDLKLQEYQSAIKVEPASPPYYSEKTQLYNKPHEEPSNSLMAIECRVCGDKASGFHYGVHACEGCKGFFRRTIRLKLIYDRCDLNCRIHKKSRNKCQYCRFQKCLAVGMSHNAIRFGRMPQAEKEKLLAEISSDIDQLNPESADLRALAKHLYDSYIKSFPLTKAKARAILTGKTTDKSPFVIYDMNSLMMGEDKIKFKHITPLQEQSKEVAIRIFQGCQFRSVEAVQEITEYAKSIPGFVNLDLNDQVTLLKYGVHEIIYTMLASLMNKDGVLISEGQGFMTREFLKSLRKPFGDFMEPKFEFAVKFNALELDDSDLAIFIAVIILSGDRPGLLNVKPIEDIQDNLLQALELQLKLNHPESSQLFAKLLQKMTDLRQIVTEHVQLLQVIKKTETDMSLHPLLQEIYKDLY
Procedure: When this assay was carried out essentially as described above but with the full length human PPARgamma rather than with the PPARgamma ligand binding domain, activation of full-length hPPARg2 was seen to 64% of the Avandia positive control (FIG. 3).

human pre-adipocytes = experiment: Adipocyte differentiation assay using human pre-adipocytes; type: cell-based
hRXRαLBD = target: T3, hRXRαLBD (Homo sapiens, UniProt P19793); experiment: RXR transactivation assay; type: cell-based
T3 construct: expressed in transfected cells
T3 sequence (P19793 227-458 limits assumed): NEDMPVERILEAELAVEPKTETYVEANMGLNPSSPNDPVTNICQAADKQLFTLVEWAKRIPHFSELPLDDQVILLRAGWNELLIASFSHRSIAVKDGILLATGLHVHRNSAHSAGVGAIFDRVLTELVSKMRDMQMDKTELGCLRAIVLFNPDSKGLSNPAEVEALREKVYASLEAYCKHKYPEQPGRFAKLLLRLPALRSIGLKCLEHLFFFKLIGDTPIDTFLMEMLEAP
Procedure: This example describes a retinoic acid X receptor transactivation assay.
Compounds are tested for their ability to transactivate RXR essentially as described in Example 22.

[2] = test system: human cervical carcinoma cell line (HeLa); experiment: Inhibition of cancer cell proliferation (flow cytometry); type: cell-based; conditions: 48 hours of treatment, read-out: inhibition of proliferation of HeLa cells
Procedure: A human cervical carcinoma cell line (HeLa) engineered to stably express a recombinant biosensor reporter activity and a non-cancer cell line, HaCaT (Boukamp et al., 1988, J. Cell Biol 106(3):761-771) was used with a Caspa Tag kit (commercially available eg from Chemicon). The detection of proliferation was carried out using a high content screening automated flow cytometer.
DPD (Substance 1) was diluted to 20 μM in cell culture medium without serum adjusted to 1% DMSO. Detection of cellular events was performed in duplicate in 96-well plates after 48 hours of treatment in the FL2 (dilution of a proliferative marker) channels of a HTS flow cytometer (FACS Calibur HTS, Becton Dickenson). At day 1, cells were seeded in 96 well plates. Cells were treated with DPD and the appropriate controls on day 2 and analysis was carried out on day 4.

MEFs / 3T3-L1 = experiment: Adipocyte differentiation induction assay (Oil Red O staining); type: cell-based, mouse
Procedure: This example describes an assay for determining adipocyte differention. Compounds are tested to see whether they induce adipocyte differentiation and also to see whether they inhibit adipocyte differention.
MEFs were grown in AmnioMax basal medium (Gibco) supplemented with 7.5% Amniomax supplement C-100 (Gibco), 7.5% Fetal Bovine Serum (FBS), 2 mM Glutamine, 62.5 μg/ml penicillin and 100 μg/ml Streptomycin (growth medium). At confluence, MEFs were induced to differentiation in growth medium with the addition of 1 μM dexamethasone (Sigma) 0.5 mM isobutylmethylxanthine (Sigma), 5 μg/ml insulin (Sigma) and 10 μM test compound dissolved in DMSO or DMSO alone. Medium was subsequently renewed every 48 hrs with growth media supplemented with 5 μg/ml Insulin and ligand or DMSO.
Briefly, to test compounds as inducers of adipocyte differentiation, 3T3-L1 are grown to confluence in DMEM with 10% Calf serum (CS), typically in 24 well dishes. At 2 days post confluence (day 0), cells are induced to differentiate with DMEM supplemented with 10% fetal bovine serum (FBS), 1 μM dexamethasone and the test compound (01, 1 and 10 μM). BRL49653 (1.0 μM dissolved in 100% DMSO) is used as a positive control. After 48 h, the cells are re-fed with DMEM containing 10% FBS supplemented with the test compound or the positive control. From day 4, cells are grown in DMEM with 10% FBS and are changed every second day until day 8. At day 8, cells are stained with Oil Red O as described below.
Cells cultured as described above are used for Oil Red staining. Dishes are washed in PBS and cells were fixed in 3.7% paraformaldehyde for 1 h and stained with oil red O as described in (Hansen et al 1999). Oil red O solution stock solution is prepared by dissolving 0.5 g of Oil Red O (Sigma) in 100 mL of isopropanol. Oil re 0 working solution is prepared by diluting a stock solution with water (6:4) followed by filtration.
Table II summarizes results obtained with different analogs of DPD (SN1), “0” representing similar results to DPD, “−1” representing even less adipocyte differentiation, “+1” representing more adipocyte differentiation (both relative to DPD) and “−” meaning not assayed.

In the case of `O=C(O)CC/C=C\CC1COC(c2ccccc2Cl)OC1c1ccccc1O` (racemic) [SN1, (Z)-6-(-2-(2-chlorophenyl)-4-(2-hydroxyphenyl)-1,3-dioxan-5-yl)hex-4-enoic acid], the “increase in PPARalpha transactivation” value (mPPARalphaLBD) is reported as “no transactivation”, the “activation of full-length hPPARg2, % of the Avandia positive control” value [1] is reported as 64% and the “red staining (Oil Red O), human pre-adipocytes” value (human pre-adipocytes) is reported as “very little red staining, similar to DMSO”. The “increase in RXR transactivation” value (hRXRαLBD) was “no transactivation”, the inhibition at 20 µM [2] was 90% and the “red staining (Oil Red O) in the induction assay” value (MEFs / 3T3-L1) was “very little red staining”.
